PubChem BioAssay (NCI)
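Protocol summary: plate cells (96-well), add compound at 5 concentrations, incubate 48 h, interpolate endpoints linearly. Abbreviation: GI50, concentration required for 50% inhibition of growth. TGI marks complete inhibition of growth.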

How the values were obtained:
Assay in all cases: growth of human tumour cells (NCI), 48 h
786-0 renal = tested on: 786-0 renal
A498 renal = tested on: A498 renal
A549 NSCLC = tested on: A549 NSCLC
ACHN renal = tested on: ACHN renal
BT-549 breast = tested on: BT-549 breast
CAKI-1 renal = tested on: CAKI-1 renal
COLO 205 colon = tested on: COLO 205 colon
EKVX NSCLC = tested on: EKVX NSCLC
HCC-2998 colon = tested on: HCC-2998 colon
HCT-116 colon = tested on: HCT-116 colon
HCT-15 colon = tested on: HCT-15 colon
HL-60(TB) leukemia = tested on: HL-60(TB) leukemia
HOP-92 NSCLC = tested on: HOP-92 NSCLC
HS 578T breast = tested on: HS 578T breast
HT29 colon = tested on: HT29 colon
IGROV1 ovarian = tested on: IGROV1 ovarian
KM12 colon = tested on: KM12 colon
LOX IMVI melanoma = tested on: LOX IMVI melanoma
M14 melanoma = tested on: M14 melanoma
MALME-3M melanoma = tested on: MALME-3M melanoma
MCF7 breast = tested on: MCF7 breast
MDA-MB-231 breast = tested on: MDA-MB-231 breast
MDA-MB-435 = tested on: MDA-MB-435
MDA-MB-468 breast = tested on: MDA-MB-468 breast
MOLT-4 leukemia = tested on: MOLT-4 leukemia
NCI-H226 lung = tested on: NCI-H226 lung
NCI-H23 lung = tested on: NCI-H23 lung
NCI-H460 lung = tested on: NCI-H460 lung
NCI-H522 lung = tested on: NCI-H522 lung
NCI/ADR-RES ovarian = tested on: NCI/ADR-RES ovarian
OVCAR-3 ovarian = tested on: OVCAR-3 ovarian
OVCAR-5 ovarian = tested on: OVCAR-5 ovarian
OVCAR-8 ovarian = tested on: OVCAR-8 ovarian
PC-3 prostate = tested on: PC-3 prostate
RXF 393 renal = tested on: RXF 393 renal
SF-295 CNS = tested on: SF-295 CNS
SF-539 CNS = tested on: SF-539 CNS
SK-MEL-2 melanoma = tested on: SK-MEL-2 melanoma
SK-MEL-28 melanoma = tested on: SK-MEL-28 melanoma
SK-MEL-5 melanoma = tested on: SK-MEL-5 melanoma
SK-OV-3 ovarian = tested on: SK-OV-3 ovarian
SN12C renal = tested on: SN12C renal
SNB-19 CNS = tested on: SNB-19 CNS
SNB-75 CNS = tested on: SNB-75 CNS
SW-620 colon = tested on: SW-620 colon
T-47D breast = tested on: T-47D breast
TK-10 renal = tested on: TK-10 renal
U251 CNS = tested on: U251 CNS
UACC-257 melanoma = tested on: UACC-257 melanoma
UACC-62 melanoma = tested on: UACC-62 melanoma
UO-31 renal = tested on: UO-31 renal

Q: What does the source list for `O/N=C(\CSc1nnc(-c2c[nH]c3ccccc23)n1-c1ccccc1)c1ccc(Br)cc1`?
A: GI50 (786-0 renal): 6.85 µM; TGI (786-0 renal): 27 µM; GI50 (A498 renal): 16.3 µM; TGI (A498 renal): 51.7 µM; GI50 (A549 NSCLC): 2.49 µM; TGI (A549 NSCLC): 6.66 µM; GI50 (ACHN renal): 2.53 µM; TGI (ACHN renal): 7.05 µM; GI50 (BT-549 breast): 3.16 µM; TGI (BT-549 breast): 7.25 µM; GI50 (CAKI-1 renal): 2.63 µM; TGI (CAKI-1 renal): 8.1 µM; GI50 (COLO 205 colon): 3.8 µM; TGI (COLO 205 colon): 16.6 µM; GI50 (EKVX NSCLC): 2.6 µM; TGI (EKVX NSCLC): 9.09 µM; GI50 (HCC-2998 colon): 3.36 µM; TGI (HCC-2998 colon): 12.3 µM; GI50 (HCT-116 colon): 3.45 µM; TGI (HCT-116 colon): 17.4 µM; GI50 (HCT-15 colon): 2.11 µM; TGI (HCT-15 colon): 4.72 µM; GI50 (HL-60(TB) leukemia): 1.92 µM; TGI (HL-60(TB) leukemia): 4.55 µM; GI50 (HOP-92 NSCLC): 3.66 µM; TGI (HOP-92 NSCLC): 24.1 µM; GI50 (HS 578T breast): 2.84 µM; TGI (HS 578T breast): 11.9 µM; GI50 (HT29 colon): 2.23 µM; TGI (HT29 colon): 5.03 µM; GI50 (IGROV1 ovarian): 3.41 µM; TGI (IGROV1 ovarian): 11.7 µM; GI50 (KM12 colon): 4.15 µM; TGI (KM12 colon): 29.2 µM; GI50 (LOX IMVI melanoma): 1.71 µM; TGI (LOX IMVI melanoma): 3.12 µM; GI50 (M14 melanoma): 3.4 µM; TGI (M14 melanoma): 17.6 µM; GI50 (MALME-3M melanoma): 3.22 µM; TGI (MALME-3M melanoma): 14.3 µM; GI50 (MCF7 breast): 3.49 µM; TGI (MCF7 breast): 15.3 µM; GI50 (MDA-MB-231 breast): 1.71 µM; TGI (MDA-MB-231 breast): 3.26 µM; GI50 (MDA-MB-435): 2.01 µM; TGI (MDA-MB-435): 3.89 µM; GI50 (MDA-MB-468 breast): 1.72 µM; TGI (MDA-MB-468 breast): 3.3 µM; GI50 (MOLT-4 leukemia): 2.09 µM; TGI (MOLT-4 leukemia): 4.8 µM; GI50 (NCI-H226 lung): 3.33 µM; TGI (NCI-H226 lung): 14.9 µM; GI50 (NCI-H23 lung): 4.31 µM; TGI (NCI-H23 lung): 19.6 µM; GI50 (NCI-H460 lung): 3.53 µM; TGI (NCI-H460 lung): 12.9 µM; GI50 (NCI-H522 lung): 2.52 µM; TGI (NCI-H522 lung): 7.7 µM; GI50 (NCI/ADR-RES ovarian): 1.9 µM; TGI (NCI/ADR-RES ovarian): 3.91 µM; GI50 (OVCAR-3 ovarian): 4.98 µM; TGI (OVCAR-3 ovarian): 23.8 µM; GI50 (OVCAR-5 ovarian): 2.18 µM; TGI (OVCAR-5 ovarian): 5.21 µM; GI50 (OVCAR-8 ovarian): 2.45 µM; TGI (OVCAR-8 ovarian): 6.5 µM; GI50 (PC-3 prostate): 2.15 µM; TGI (PC-3 prostate): 4.96 µM; GI50 (RXF 393 renal): 1.75 µM; TGI (RXF 393 renal): 3.65 µM; GI50 (SF-295 CNS): 1.93 µM; TGI (SF-295 CNS): 4.7 µM; GI50 (SF-539 CNS): 4.04 µM; TGI (SF-539 CNS): 14.2 µM; GI50 (SK-MEL-2 melanoma): 3.1 µM; TGI (SK-MEL-2 melanoma): 10.4 µM; GI50 (SK-MEL-28 melanoma): 3.4 µM; TGI (SK-MEL-28 melanoma): 12.5 µM; GI50 (SK-MEL-5 melanoma): 3.55 µM; TGI (SK-MEL-5 melanoma): 12.8 µM; GI50 (SK-OV-3 ovarian): 2.53 µM; TGI (SK-OV-3 ovarian): 6.03 µM; GI50 (SN12C renal): 2.52 µM; TGI (SN12C renal): 7.97 µM; GI50 (SNB-19 CNS): 4.33 µM; TGI (SNB-19 CNS): 19.8 µM; GI50 (SNB-75 CNS): 1.87 µM; TGI (SNB-75 CNS): 4.95 µM; GI50 (SW-620 colon): 3.28 µM; TGI (SW-620 colon): 12.1 µM; GI50 (T-47D breast): 3.51 µM; TGI (T-47D breast): 17.2 µM; GI50 (TK-10 renal): 2.8 µM; TGI (TK-10 renal): 7.63 µM; GI50 (U251 CNS): 4.38 µM; TGI (U251 CNS): 17.3 µM; GI50 (UACC-257 melanoma): 3.87 µM; TGI (UACC-257 melanoma): 17.5 µM; GI50 (UACC-62 melanoma): 1.77 µM; TGI (UACC-62 melanoma): 3.74 µM; GI50 (UO-31 renal): 2.29 µM; TGI (UO-31 renal): 7.81 µM
